Columns and labels:
[1] = single warfarin dose studies, healthy volunteers (n = 5 or 6); cited from earlier work
[2] = tested on: CYP2C9-mediated (S)-warfarin 7-hydroxylation; experiment: Prediction of in vivo warfarin drug interaction from [I]/KI and [I]u/KI,u; parameters: species or system human; settings: equation 1

CC(=O)C[C@@H](c1ccccc1)c1c(O)c2ccccc2oc1=O [(S)-warfarin]
actual increase in the mean AUC caused by the drug interaction with AMIO [1]: 27 to 110% | predicted increase in AUC ([2]; sum of [I]/KI ratios of AMIO and circulating metabolites): 6 fold | predicted increase in AUC ([2]; sum of [I]u/KI,u ratios of AMIO and circulating metabolites): 6 fold

— PMC3900249 (Clinical pharmacology and therapeutics, 2012)
